Patent publication US20080287479A1, “INHIBITORS OF SERINE PALMITOYLTRANSFERASE” (Pfizer Inc, priority 2006, published 2008)
Where a name gives a salt, the structure may show the parent alone.

target: T1, Serine Palmitoyl Transferase (SPT); microsomes from HEK 293 cells stably transfected with human LCB2 subunit of SPT (Homo sapiens, UniProt O15270); test: SPT flashplate assay; type: biochemical; details: SPTISF IC50 (nM)
T1 construct: expressed in transfected cells; host or cells: HEK 293 cells stably transfected with LCB2; microsomal fraction
T1 sequence (O15270 1-562): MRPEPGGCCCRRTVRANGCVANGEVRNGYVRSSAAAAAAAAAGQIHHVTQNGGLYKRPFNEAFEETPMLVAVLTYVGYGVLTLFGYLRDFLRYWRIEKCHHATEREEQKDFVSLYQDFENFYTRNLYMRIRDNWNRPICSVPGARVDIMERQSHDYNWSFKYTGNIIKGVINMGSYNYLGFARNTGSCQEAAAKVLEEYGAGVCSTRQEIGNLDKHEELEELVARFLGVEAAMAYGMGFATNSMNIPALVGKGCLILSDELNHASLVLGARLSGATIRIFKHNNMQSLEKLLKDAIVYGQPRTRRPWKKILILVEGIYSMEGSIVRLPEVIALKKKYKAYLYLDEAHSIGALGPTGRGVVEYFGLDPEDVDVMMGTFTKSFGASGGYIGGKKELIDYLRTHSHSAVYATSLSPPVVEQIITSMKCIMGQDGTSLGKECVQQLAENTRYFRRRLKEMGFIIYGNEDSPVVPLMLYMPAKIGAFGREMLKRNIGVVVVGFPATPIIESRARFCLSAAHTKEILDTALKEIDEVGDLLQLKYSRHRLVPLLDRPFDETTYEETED
T1 sequence (O15269 1-473 partner): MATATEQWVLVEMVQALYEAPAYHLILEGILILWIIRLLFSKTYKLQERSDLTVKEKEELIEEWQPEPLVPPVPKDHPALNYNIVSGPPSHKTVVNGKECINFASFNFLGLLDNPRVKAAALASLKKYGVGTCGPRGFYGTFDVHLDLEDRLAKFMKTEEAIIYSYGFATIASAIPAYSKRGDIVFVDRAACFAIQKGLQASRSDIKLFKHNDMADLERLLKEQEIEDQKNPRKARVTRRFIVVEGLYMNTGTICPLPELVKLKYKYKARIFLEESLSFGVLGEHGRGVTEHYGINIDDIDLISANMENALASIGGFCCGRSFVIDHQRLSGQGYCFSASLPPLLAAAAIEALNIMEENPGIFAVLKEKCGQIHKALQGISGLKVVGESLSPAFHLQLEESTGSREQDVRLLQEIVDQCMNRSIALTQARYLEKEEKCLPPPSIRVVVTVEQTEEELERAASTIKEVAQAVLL
T1 sequence (Q969W0 1-71 partner): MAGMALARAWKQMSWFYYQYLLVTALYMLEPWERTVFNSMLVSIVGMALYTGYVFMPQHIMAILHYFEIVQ

SMILES | IC50 [nM]
CCc1ccc(C(=O)CN2CCC(n3c(=O)[nH]c4cc(C(=O)NC)c(F)cc43)CC2)cc1 [Example 9, 1-[2-(4-ethylphenyl)-2-oxoethyl]-4-{6-fluoro-5-[(methylamino)carbonyl]-2-oxo-2,3-dihydro-1H-benzimidazol-1-yl}piperidinium chloride] | 6.2
CNC(=O)c1ccc2c(c1)CC(=O)N2C1CCN(CC(=O)N2CCC(C)(OC)CC2)CC1 [Example 19, 1-[2-(4-methoxy-4-methylpiperidin-1-yl)-2-oxoethyl]-4-{5-[(methylamino)carbonyl]-2-oxo-2,3-dihydro-1H-indol-1-yl}piperidinium chloride] | 18.7
CNC(=O)c1ccc2c(c1)CC(=O)N2C1CCN(CC(=O)N2C[C@H]3CCC[C@H]3C2)CC1 [Example 20, 1-{2-[(3aR,6aS)-hexahydrocyclopenta[c]pyrrol-2(1H)-yl]-2-oxoethyl}-4-{5-[(methylamino)carbonyl]-2-oxo-2,3-dihydro-1H-indol-1-yl}piperidinium hydrogen sulfate] | 11.4
CNC(=O)c1cc2c(cc1F)N(C1CCN(CC(=O)N3C[C@H]4CCC[C@H]4C3)CC1)C(=O)C2 [Example 21, 4-{6-fluoro-5-[(methylamino)carbonyl]-2-oxo-2,3-dihydro-1H-indol-1-yl}-1-{2-[(3aR,6aS)-hexahydrocyclopenta[c]pyrrol-2(1H)-yl]-2-oxoethyl}piperidinium chloride] | 14.6
CNC(=O)c1cc2c(cc1F)N(C1CCN(CC(=O)N3CCC(C)(C)CC3)CC1)C(=O)C2 [Example 22, 1-[2-(4,4-dimethylpiperidin-1-yl)-2-oxoethyl]-4-{6-fluoro-5-[(methylamino)carbonyl]-2-oxo-2,3-dihydro-1H-indol-1-yl}piperidinium chloride] | 10.6
CNC(=O)c1ccc2c(c1)CC(=O)N2C1CCN(CC(=O)N2CCC(C)(C)CC2)CC1 [Example 23, 1-[2-(4,4-dimethylpiperidin-1-yl)-2-oxoethyl]-4-{5-[(methylamino)carbonyl]-2-oxo-2,3-dihydro-1H-indol-1-yl}piperidinium chloride] | 8.4
CNC(=O)c1ccc2c(c1)CC(=O)N2C1CCN(CC(=O)N2CCC3(CC2)CC3)CC1 [Example 25, 1-[2-6-azaspiro[2.5]oct-6-yl)-2-oxoethyl]-4-{5-[(methylamino)carbonyl]-2-oxo-2,3-dihydro-1H-indol-1-yl}piperidinium chloride] | 2.64
O=C(CN1CCC(n2c(=O)[nH]c3cc(-c4noc(=O)[nH]4)ccc32)CC1)c1ccc(Cl)cc1 [Example 37, 1-{1-[2-(4-chlorophenyl)-2-oxoethyl]piperidin-4-yl}-5-(5-oxo-4,5-dihydro-1,2,4-oxadiazol-3-yl)-1,3-dihydro-2H-benzimidazol-2-one] | 1.68

same assay, conditions: microsomes of HEK 293 LCB2 cells, 3H-serine and palmitoyl CoA, phospholipid coated flashplate, 18-24 hours at room temperature; read-out: SPTISF IC50

SMILES | IC50 [nM]
CNC(=O)c1cc2[nH]c(=O)n(C3CCN(CC(=O)C4CCCCC4)CC3)c2cc1F [Example 11, 1-[1-(2-cyclohexyl-2-oxoethyl)piperidin-4-yl]-6-fluoro-N-methyl-2-oxo-2,3-dihydro-1H-benzimidazole-5-carboxamide] | 63
CNC(=O)c1cc2[nH]c(=O)n(C3CCN(CC(=O)C4CCC(F)(F)CC4)CC3)c2cc1F [Example 12, 1-{1-[2-(4,4-difluorocyclohexyl)-2-oxoethyl]piperidin-4-yl}-6-fluoro-N-methyl-2-oxo-2,3-dihydro-1H-benzimidazole-5-carboxamide] | 5.3
CNC(=O)c1cc2[nH]c(=O)n(C3CCN(CC(=O)C4CCC(C)CC4)CC3)c2cc1F (stereo not drawn) [Example 13, 6-fluoro-N-methyl-1-{1-[2-(4-methylcyclohexyl)-2-oxoethyl]piperidin-4-yl}-2-oxo-2,3-dihydro-1H-benzimidazole-5-carboxamide] | 6
CNC(=O)c1cc2[nH]c(=O)n(C3CCN(CC(=O)C4CCC(C(C)(C)C)CC4)CC3)c2cc1F (stereo not drawn) [Example 14, 1-{1-[2-(4-tert-butylcyclohexyl)-2-oxoethyl]piperidin-4-yl}-6-fluoro-N-methyl-2-oxo-2,3-dihydro-1H-benzimidazole-5-carboxamide] | 106
CNC(=O)c1cc2[nH]c(=O)n(C3CCN(CC(=O)C4CCC(C(F)(F)F)CC4)CC3)c2cc1F (stereo not drawn) [Example 15, 6-fluoro-N-methyl-2-oxo-1-(1-{2-oxo-2-[4(trifluoromethyl)cyclohexyl]ethyl}piperidin-4-yl)-2,3-dihydro-1H-benzimidazole-5-carboxamide] | 9.5
CNC(=O)c1cc2[nH]c(=O)n(C3CCN(CC(=O)C4CCC(C)(OC)CC4)CC3)c2cc1F (stereo not drawn) [Example 16, 6-fluoro-1-{1-[2-(4-methoxy-4-methylcyclohexyl)-2-oxoethyl]piperidin-4-yl}-N-methyl-2-oxo-2,3-dihydro-1H-benzimidazole-5-carboxamide] | 53
CNC(=O)c1cc2[nH]c(=O)n(C3CCN(CC(=O)C4(C)CCCCC4)CC3)c2cc1F [Example 17, 6-fluoro-N-methyl-1-{1-[2-(1-methylcyclohexyl)-2-oxoethyl]piperidin-4-yl}-2-oxo-2,3-dihydro-1H-benzimidazole-5-carboxamide] | 7.14
CNC(=O)c1cc2[nH]c(=O)n(C3CCN(CC(=O)N4CCC(C)(C)CC4)CC3)c2cc1F [Example 26, 1-[2-(4,4-dimethylpiperidin-1-yl)-2-oxoethyl]-4-{6-fluoro-5-[(methylamino)carbonyl]-2-oxo-2,3-dihydro-1H-benzimidazol-1-yl}piperidinium chloride] | 7.5
CCC1(C)CCN(C(=O)CN2CCC(n3c(=O)[nH]c4cc(C(=O)NC)c(F)cc43)CC2)CC1 [Example 27, 1-{1-[2-(4-ethyl-4-methylpiperidin-1-yl)-2-oxoethyl]piperidin-4-yl}-6-fluoro-N-methyl-2-oxo-2,3-dihydro-1H-benzimidazole-5-carboxamide] | 6
CNC(=O)c1cc2[nH]c(=O)n(C3CCN(CC(=O)N4CCC5(CC4)CC5)CC3)c2cc1F [Example 28, 1-{1-[2-(6-azaspiro[2.5]oct-6-yl)-2-oxoethyl]piperidin-4-yl}-6-fluoro-N-methyl-2-oxo-2,3-dihydro-1H-benzimidazole-5-carboxamide] | 12.9
C=C1CCN(C(=O)CN2CCC(n3c(=O)[nH]c4cc(C(=O)NC)c(F)cc43)CC2)CC1 [Example 29, 6-fluoro-N-methyl-1-{1-[2-(4-methylonepiperidin-1-yl)-2-oxoethyl]piperidin-4-yl}-2-oxo-2,3-dihydro-1H-benzimidazole-5-carboxamide] | 9.4
CNC(=O)c1cc2[nH]c(=O)n(C3CCN(CC(=O)N4CC5CCC(CC5)C4)CC3)c2cc1F [Example 30, 1-{1-[2-(3-azabicyclo[3.2.2]non-3-yl)-2-oxoethyl]piperidin-4-yl}-6-fluoro-N-methyl-2-oxo-2,3-dihydro-1H-benzimidazole-5-carboxamide] | 14.5
CNC(=O)c1cc2[nH]c(=O)n(C3CCN(CC(=O)N4C[C@H]5CCC[C@H]5C4)CC3)c2cc1F [Example 31, 6-fluoro-1-(1-{2-[(3aR,6aS)-hexahydrocyclopenta[c]pyrrol-2(1H)-yl]-2-oxoethyl}piperidin-4-yl)-N-methyl-2-oxo-2,3-dihydro-1H-benzimidazole-5-carboxamide] | 14.7
CNC(=O)c1cc2[nH]c(=O)n(C3CCN(CC(=O)N4CCC(C)(OC)CC4)CC3)c2cc1F [Example 32, 6-fluoro-1-{1-[2-(4-methoxy-4-methylpiperidin-1-yl)-2-oxoethyl]piperidin-4-yl}-N-methyl-2-oxo-2,3-dihydro-1H-benzimidazole-5-carboxamide] | 26
CCNC(=O)c1ccc2c(c1)n(C)c(=O)n2C1CCN(CC(=O)N2CCC(C)(C)CC2)CC1 [Example 33, 1-[2-(4,4-dimethylpiperidin-1-yl)-2-oxoethyl]-4-{5-[(ethylamino)carbonyl]-3-methyl-2-oxo-2,3-dihydro-1H-benzimidazol-1-yl}piperidinium chloride] | 59.1
CC1(C)CCN(C(=O)CN2CCC(n3c(=O)[nH]c4cc(S(C)(=O)=O)ccc43)CC2)CC1 [Example 39, 1-{1-[2-(4,4-dimethylpiperidin-1-yl)-2-oxoethyl]piperidin-4-yl}-5-(methylsulfonyl)-1,3-dihydro-2H-benzimidazol-2-one] | 47.9
